Results: ChEMBL document CHEMBL1133757, “Reporter affinity labels: an o-phthalaldehyde derivative of beta-naltrexamine as a fluorogenic ligand for opioid receptors” (J Med Chem, 2000)

How the values were obtained:
[1] = target: Kappa-type opioid receptor (Homo sapiens, UniProt P41145); test: Inhibition of [3H]diprenorphine binding to Opioid receptor kappa 1
[2] = target: Delta-type opioid receptor (Homo sapiens, UniProt P41143); test: Inhibition of [3H]- diprenorphine binding to Opioid receptor delta 1
Chain of Delta-type opioid receptor (P41143 whole entry): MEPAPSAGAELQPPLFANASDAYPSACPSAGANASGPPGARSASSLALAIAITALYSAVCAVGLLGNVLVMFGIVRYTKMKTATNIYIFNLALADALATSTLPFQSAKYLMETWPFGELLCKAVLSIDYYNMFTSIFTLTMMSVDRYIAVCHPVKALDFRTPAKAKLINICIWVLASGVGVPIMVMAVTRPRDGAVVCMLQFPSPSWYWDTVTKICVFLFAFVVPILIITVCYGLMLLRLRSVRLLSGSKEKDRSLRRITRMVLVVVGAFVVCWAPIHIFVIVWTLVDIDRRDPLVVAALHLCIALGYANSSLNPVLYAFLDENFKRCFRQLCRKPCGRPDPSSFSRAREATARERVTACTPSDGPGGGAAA

Mu-type opioid receptor = Mu-type opioid receptor (Homo sapiens, UniProt P35372); test: Inhibition of [3H]- diprenorphine binding to Opioid receptor mu 1 (83 fmol/mg protein) stably expressed in membranes from CHO cells; format: cell membranes
Chain of Mu-type opioid receptor (P35372 whole entry): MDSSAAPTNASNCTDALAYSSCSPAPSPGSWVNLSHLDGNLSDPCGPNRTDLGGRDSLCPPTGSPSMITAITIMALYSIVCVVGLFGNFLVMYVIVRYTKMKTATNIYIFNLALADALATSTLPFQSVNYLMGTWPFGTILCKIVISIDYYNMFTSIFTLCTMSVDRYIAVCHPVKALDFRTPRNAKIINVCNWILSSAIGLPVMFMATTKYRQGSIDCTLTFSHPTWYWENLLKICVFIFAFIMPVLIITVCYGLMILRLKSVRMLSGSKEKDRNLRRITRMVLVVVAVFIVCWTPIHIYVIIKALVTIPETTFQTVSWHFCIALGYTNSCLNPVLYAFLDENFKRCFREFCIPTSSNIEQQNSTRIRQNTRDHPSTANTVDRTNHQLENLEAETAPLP

Chain of Kappa-type opioid receptor (P41145 whole entry): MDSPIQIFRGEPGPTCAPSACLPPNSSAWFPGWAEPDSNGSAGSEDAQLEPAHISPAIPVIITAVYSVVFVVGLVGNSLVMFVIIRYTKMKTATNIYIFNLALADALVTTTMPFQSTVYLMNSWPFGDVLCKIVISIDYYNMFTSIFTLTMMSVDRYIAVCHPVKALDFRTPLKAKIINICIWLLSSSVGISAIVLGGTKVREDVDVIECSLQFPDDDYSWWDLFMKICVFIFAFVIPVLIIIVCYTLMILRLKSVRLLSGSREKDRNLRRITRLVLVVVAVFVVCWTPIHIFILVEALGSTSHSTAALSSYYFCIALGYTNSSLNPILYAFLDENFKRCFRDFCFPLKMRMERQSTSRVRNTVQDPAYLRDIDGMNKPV

SMILES: O=Cc1ccc(C(=O)NCC(=O)N[C@@H]2CC[C@@]3(O)[C@H]4Cc5ccc(O)c6c5C3(CCN4CC3CC3)C2O6)cc1C=O (stereo partly drawn)
- Ki [1]: 0.7 nM
- Ki [2]: 2.57 nM
- Ki (Mu-type opioid receptor): 0.45 nM
